Assay results reported in patent publication US20260263340A1, “Cosmetic Products and Cleaning Products Stabilized Against Microbial Attack” (Thor GmbH, priority 2023, published 2026).

Experiments:
[1] = tested on: bacteria mixture 3; test: Repeated-inoculation microbiological stress test of all-purpose cleaner, bacteria mixture 3 (alkaliphilic bacteria); type: cell-based, Nesterenkonia spec.; parameters: key to Bacteria growth after inoculation: 0: No growth; Minimal growth, 1 to 10 colonies visible over the entire streak; 2: Light growth, maximum 100 colonies; Moderate growth, maximum 300 to 400 colonies; Uniform growth, >400 colonies, single colonies still clearly recognizable; 5: Heavy growth, too many colonies to count, but no growth over the entire streak; 6: Full growth, barely any single colonies still apparent, growth over the entire streak; conditions: for Bacteria growth after inoculation: All-purpose cleaner, 7 d
Excerpt: (§1) The tested cleaning composition was an all-purpose cleaner without preservatives and having a pH of 7.7, the skin lotion was a body lotion without preservatives and having a pH of 7.1, and the shampoo was a hair shampoo without preservatives and having a pH of 6.9.
(§2) The cleaning composition was admixed with particular concentrations of guanidine carbonate and guanidine hydrochloride and homogenized. The body lotion and the hair shampoo were each admixed and homogenized with guanidine hydrochloride and with octane-1,2-diol alone or in combination.
The cleaning composition was additionally inoculated repeatedly at particular intervals with a special inoculum consisting of a mixture of alkaliphilic bacteria (bacteria mixture 3) that had been isolated from a bacterially contaminated cleaning composition having a pH of 9.8.
(§3) The inoculum was added to the respective sample in each inoculation at 2% (v/w) as a fresh cell suspension in a physiological saline solution (0.9% NaCl). The cell count of the inoculum added was 10^8-10^9/ml for the bacteria mixtures, 10^7-10^8/ml for the yeast mixtures, consisting in equal parts of the individual bacteria strains or yeast strains.
(§4) The cell suspension of the bacteria mixtures was produced by growing the individual bacteria at 30° C. for 24 h in liquid culture on a shaker. The medium used to grow the bacteria from bacteria mixtures 1 and 2 was Müller-Hinton liquid medium. The bacteria from bacteria mixture 3 were grown in Müller-Hinton liquid medium that had been adjusted to pH 9.5 to 9.7 with an alkaline buffer solution beforehand. After growing, the individual liquid cultures were centrifuged, and the cells were resuspended in physiological saline solution. In order to adjust the mixtures to a total cell count of 10^8 to 10^9/ml, the individual bacteria suspensions, if necessary, were diluted accordingly before being combined with saline solution. The cell count of the inoculum suspensions was determined in each case by chamber counting.
(§5) In the examples, the samples were inoculated three times at weekly intervals with the respective cell suspensions (2% v/w) and the evolution of the bacteria or yeasts was followed by a semiquantitative evaluation method. After each inoculation, microbial infestation in the samples was evaluated in each case after incubation at 30° C. for 6 to 7 days. For this purpose, an aliquot was taken from each sample after homogenization using a sterile plastic inoculation loop (10 μl) and streaked evenly on agar plates (bacteria mixture 1 and 2 on tryptic soy agar, bacteria mixture 3 on DSMZ 31 alkaline nutrient agar, Sabouraud glucose-agar in the case of yeasts). The streaked agar plates were then incubated at 30° C. for 48 hours (bacteria mixture 1 and 2) or 5 to 7 days (bacteria mixture 3), or at 25° C. for 72 hours (yeast mixtures). After incubation, the bacteria colonies or yeast colonies that have grown on the agar plates were visually evaluated and quantified according to the following scheme:
Inoculation 2% (w/v) with bacteria mixture 3, cell count 10^9/ml

[2] = tested on: bacteria mixture 1; test: Repeated-inoculation microbiological stress test of all-purpose cleaner, bacteria mixture 1; type: cell-based; parameters: key to Bacterial growth after inoculation: 0: No growth; Minimal growth, 1 to 10 colonies visible over the entire streak; 2: Light growth, maximum 100 colonies; Moderate growth, maximum 300 to 400 colonies; Uniform growth, >400 colonies, single colonies still clearly recognizable; 5: Heavy growth, too many colonies to count, but no growth over the entire streak; 6: Full growth, barely any single colonies still apparent, growth over the entire streak; conditions: for Bacterial growth after inoculation: All-purpose cleaner, 6 d
Excerpt: as §1, §2
(§6) The batches of the products thus obtained were inoculated repeatedly at particular intervals with bacteria mixtures or yeast mixtures that are used as standard for microbiological stress tests of industrial products or cosmetic products (bacteria mixture 1 and 2, yeast mixture 1 and 2).
as §3, §4, §5
Inoculation 2% (w/v) with bacteria mixture 1, cell count 10^9/ml

[3] = tested on: yeast mixture 1; test: Repeated-inoculation microbiological stress test of all-purpose cleaner, yeast mixture 1; type: cell-based; parameters: key to Yeast growth after inoculation: 0: No growth; Minimal growth, 1 to 10 colonies visible over the entire streak; 2: Light growth, maximum 100 colonies; Moderate growth, maximum 300 to 400 colonies; Uniform growth, >400 colonies, single colonies still clearly recognizable; 5: Heavy growth, too many colonies to count, but no growth over the entire streak; 6: Full growth, barely any single colonies still apparent, growth over the entire streak; conditions: for Yeast growth after inoculation: All-purpose cleaner, 6 d
Excerpt: as §1, §2, §6, §3
The cell suspension of the yeast mixtures was produced by growing the yeast strains on Sabouraud glucose-agar at 25° C. for 48 hours and washing down the cell lawn in each case with physiological saline solution (0.9% NaCl). Further steps for establishment of a cell count of the inoculum suspension of 10^7/ml to 10^8/ml were effected analogously to the production of the bacteria suspensions.
as §5
Inoculation 2% (w/v) with yeast mixture 1, cell count 10^8/ml

[4] = +1000 ppm guanidine carbonate (656 ppm guanidine) pH 9.3, 1. inoculation
[5] = +1000 ppm guanidine carbonate (656 ppm guanidine) pH 9.3, 2. inoculation
[6] = +1000 ppm guanidine carbonate (656 ppm guanidine) pH 9.3, 3. inoculation

SMILES: N=C(N)N.N=C(N)N.O=C(O)O [guanidine carbonate]
- Bacteria growth after inoculation ([1]; +500 ppm guanidine carbonate (328 ppm guanidine) pH 9.1, 1. inoculation): 0
- Bacteria growth after inoculation ([1]; +500 ppm guanidine carbonate (328 ppm guanidine) pH 9.1, 2. inoculation): 2 (Light growth, maximum 100 colonies)
- Bacteria growth after inoculation ([1]; +500 ppm guanidine carbonate (328 ppm guanidine) pH 9.1, 3. inoculation): 2 (Light growth, maximum 100 colonies)
- Bacteria growth after inoculation [1, 4]: 0
- Bacteria growth after inoculation [1, 5]: 0
- Bacteria growth after inoculation [1, 6]: 1 (Minimal growth, 1 to 10 colonies visible over the entire streak)
- Bacteria growth after inoculation ([1]; +2500 ppm guanidine carbonate (1640 ppm guanidine) pH 10.0, 1. inoculation): 0
- Bacteria growth after inoculation ([1]; +2500 ppm guanidine carbonate (1640 ppm guanidine) pH 10.0, 2. inoculation): 0
- Bacteria growth after inoculation ([1]; +2500 ppm guanidine carbonate (1640 ppm guanidine) pH 10.0, 3. inoculation): 0
- Bacteria growth after inoculation ([1]; +5000 ppm guanidine carbonate (3280 ppm guanidine) pH 10.5, 1. inoculation): 0
- Bacteria growth after inoculation ([1]; +5000 ppm guanidine carbonate (3280 ppm guanidine) pH 10.5, 2. inoculation): 0
- Bacteria growth after inoculation ([1]; +5000 ppm guanidine carbonate (3280 ppm guanidine) pH 10.5, 3. inoculation): 0
- stability of the all-purpose cleaner to microbial infestation by bacteria ([1]; addition of 330 ppm of guanidine in the form of guanidine carbonate at pH 9.1): distinct improvement in stability
- Bacterial growth after inoculation ([2]; +1000 ppm guanidine carbonate (656 ppm guanidine) pH 9.2, 1. inoculation): 0
- Bacterial growth after inoculation ([2]; +1000 ppm guanidine carbonate (656 ppm guanidine) pH 9.2, 2. inoculation): 0
- Bacterial growth after inoculation ([2]; +1000 ppm guanidine carbonate (656 ppm guanidine) pH 9.2, 3. inoculation): 5
- Bacterial growth after inoculation ([2]; +1500 ppm guanidine carbonate (984 ppm guanidine) pH 9.5, 1. inoculation): 0
- Bacterial growth after inoculation ([2]; +1500 ppm guanidine carbonate (984 ppm guanidine) pH 9.5, 2. inoculation): 0
- Bacterial growth after inoculation ([2]; +1500 ppm guanidine carbonate (984 ppm guanidine) pH 9.5, 3. inoculation): 0
- stability of the all-purpose cleaner to microbial infestation by bacteria ([2]; addition of 659 ppm of guanidine in the form of guanidine carbonate at pH 9.2 or pH 9.5): distinct improvement in stability
- Yeast growth after inoculation [3, 4]: 1 (Minimal growth, 1 to 10 colonies visible over the entire streak)
- Yeast growth after inoculation [3, 5]: 1 (Minimal growth, 1 to 10 colonies visible over the entire streak)
- Yeast growth after inoculation [3, 6]: 3 (Moderate growth, maximum 300 to 400 colonies)
- Yeast growth after inoculation ([3]; +2500 ppm guanidine carbonate (1640 ppm guanidine) pH 9.9, 1. inoculation): 0
- Yeast growth after inoculation ([3]; +2500 ppm guanidine carbonate (1640 ppm guanidine) pH 9.9, 2. inoculation): 0
- Yeast growth after inoculation ([3]; +2500 ppm guanidine carbonate (1640 ppm guanidine) pH 9.9, 3. inoculation): 0
- Yeast growth after inoculation ([3]; +5000 ppm guanidine carbonate (3280 ppm guanidine) pH 10.4, 1. inoculation): 0
- Yeast growth after inoculation ([3]; +5000 ppm guanidine carbonate (3280 ppm guanidine) pH 10.4, 2. inoculation): 0
- Yeast growth after inoculation ([3]; +5000 ppm guanidine carbonate (3280 ppm guanidine) pH 10.4, 3. inoculation): 0
- stability of the all-purpose cleaner to microbial infestation by yeasts ([3]; addition of 659 ppm of guanidine in the form of guanidine carbonate at pH 9.9): distinct improvement in stability
